Here are results for 12 compounds from ChEMBL document CHEMBL1201862, “PubChem BioAssay data set” (2004).

Some test systems named below: A549; ACHN; CCRF-CEM; DU-145; HT-29; Hs-578T; KM12; NCI-H460; NCI-H522; OVCAR-3; OVCAR-5; SF-295; SF-539; SK-MEL-2; SNB-19; SNB-75; UACC-62; A498; Malme-3M.
Assay in all cases: NCI tumour cell line growth inhibition, 48 h

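A five-concentration, 48-hour dose response in 96-well plates underlies each endpoint, interpolated linearly between surrounding concentrations. Here, GI50 denotes the concentration required for 50% inhibition of growth.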 Active and inactive are the calls of the source. Rule as the data show it: active = GI50 up to about 1.1 µM and inactive = higher.

With `O=C(CC(=O)N1N=C(N(c2ccccc2)c2ccccc2)CC1c1ccccc1)Nc1ccccc1` (stereo unspecified), the GI50 with A549 was > 100 µM (inactive); in the assay on ACHN, > 100 µM (inactive); in the assay on CCRF-CEM, > 100 µM (inactive); with DU-145, > 100 µM (inactive); in the assay with HT-29, > 100 µM (inactive); with Hs-578T, 42.5 µM (inactive). For the same compound, the GI50 is > 100 µM (inactive) in the assay on KM12; > 100 µM (inactive) in the assay on NCI-H460; 64.1 µM (inactive) with NCI-H522; > 100 µM (inactive) in the assay on OVCAR-3; > 100 µM (inactive) with OVCAR-5; 66.7 µM (inactive) with SF-295. Further, the GI50 in the assay with SF-539 was > 100 µM (inactive); in the assay on SK-MEL-2, > 100 µM (inactive); in the assay on SNB-19, 78 µM (inactive); in the assay on SNB-75, 61.4 µM (inactive); in the assay on UACC-62, 34.4 µM (inactive).

With `CSc1s[s+]c(SC)c1-c1ccccc1`, the GI50 in the assay with A498 is 19.8 µM (inactive); in the assay with A549 it was 28.1 µM (inactive); with ACHN, 16.3 µM (inactive); with CCRF-CEM, 25.2 µM (inactive); in the assay with DU-145 it was 70.1 µM (inactive); in the assay on HT-29, 17.5 µM (inactive). Also, the GI50 is 25.4 µM (inactive) with Hs-578T; 16 µM (inactive) in the assay on KM12; 11.3 µM (inactive) in the assay on Malme-3M; 29.7 µM (inactive) in the assay with NCI-H460; 11.7 µM (inactive) with NCI-H522; 15 µM (inactive) in the assay on OVCAR-3. Besides, the GI50 in the assay with OVCAR-5 is 15.8 µM (inactive); in the assay with SF-295, 17.6 µM (inactive); in the assay on SF-539, 18.2 µM (inactive); in the assay with SNB-19, 16.6 µM (inactive); with UACC-62 it was 13.4 µM (inactive).

`CNc1ccc([S+]([O-])Nc2ccc(OC)cc2)cc1` (stereo unspecified): the GI50 in the assay with A498 is > 100 µM (inactive); in the assay on A549, 66.2 µM (inactive); in the assay on ACHN it was 32.3 µM (inactive); in the assay on CCRF-CEM, 46.5 µM (inactive); in the assay on DU-145 it was 39.5 µM (inactive); in the assay on HT-29, 33.7 µM (inactive). Also, the GI50 with Hs-578T is > 100 µM (inactive); in the assay with KM12, 3.86 µM (inactive); with Malme-3M, 41.7 µM (inactive); in the assay on NCI-H460 it was 32 µM (inactive); with NCI-H522 it was > 100 µM (inactive); in the assay on OVCAR-3, > 100 µM (inactive). The GI50 was > 100 µM (inactive) in the assay on SF-295, 33.2 µM (inactive) in the assay with SF-539, > 100 µM (inactive) in the assay with SNB-19 and > 10 µM (inactive) in the assay with UACC-62.

Regarding `O=C1OCC2=Nc3cccc4cccc(c34)N12`, the GI50 with A549 was > 100 µM (inactive); in the assay on ACHN, > 100 µM (inactive); with CCRF-CEM, 49.8 µM (inactive); with DU-145, > 100 µM (inactive); in the assay on HT-29, > 100 µM (inactive); in the assay on Hs-578T it was > 100 µM (inactive). In addition, the GI50 was > 100 µM (inactive) in the assay on KM12; > 100 µM (inactive) in the assay on NCI-H460; 88.9 µM (inactive) in the assay with NCI-H522; > 100 µM (inactive) in the assay on OVCAR-3; > 100 µM (inactive) with SF-295; > 100 µM (inactive) with SF-539. In addition, the GI50 in the assay on SNB-19, with SNB-75 and in the assay on UACC-62 was > 100 µM (inactive) each time.

With `CN1CC=C(OP(=O)(NCc2ccccc2)N(CCCl)CCCl)CC1` (stereo unspecified), the GI50 is > 100 µM (inactive) in the assay with A498; > 100 µM (inactive) in the assay with ACHN; > 100 µM (inactive) with CCRF-CEM; > 100 µM (inactive) with DU-145; 61.8 µM (inactive) with HT-29; > 100 µM (inactive) with Hs-578T. In addition, the GI50 in the assay with KM12, in the assay with Malme-3M, in the assay with NCI-H460, in the assay on OVCAR-3, with OVCAR-5 and in the assay with SF-295 was > 100 µM (inactive) throughout. In addition, the GI50 was > 100 µM (inactive) in the assay with SF-539; > 100 µM (inactive) in the assay on SK-MEL-2; > 100 µM (inactive) in the assay with SNB-19; 89.3 µM (inactive) in the assay with SNB-75; > 100 µM (inactive) in the assay on UACC-62.

With `Cc1ccc(-c2nc(N/N=C/C=C/c3ccccc3)c3ccccc3n2)cc1`, the GI50 with A549 was 34.4 µM (inactive); with ACHN, 19.1 µM (inactive); with CCRF-CEM, > 100 µM (inactive); with DU-145 it was 25.9 µM (inactive); in the assay on HT-29, 32.8 µM (inactive); with Hs-578T, > 100 µM (inactive). The GI50 was 54 µM (inactive) with KM12; 30 µM (inactive) with Malme-3M; 28.6 µM (inactive) with NCI-H460; 21.3 µM (inactive) in the assay on NCI-H522; 31.6 µM (inactive) with OVCAR-3; 17.4 µM (inactive) with OVCAR-5. Moreover, the GI50 in the assay on SF-295 was 23.2 µM (inactive); in the assay with SF-539, 55.5 µM (inactive); in the assay with SK-MEL-2 it was 24.9 µM (inactive); with SNB-19, 37.6 µM (inactive); in the assay on SNB-75, 33.6 µM (inactive); with UACC-62, 17.1 µM (inactive).

For `Cc1c(NC(=O)c2cc([N+](=O)[O-])cc([N+](=O)[O-])c2)c(=O)n(-c2ccccc2)n1C`, the GI50 with A498 was > 100 µM (inactive); in the assay on A549, > 100 µM (inactive); in the assay on CCRF-CEM, > 100 µM (inactive); in the assay with DU-145, > 100 µM (inactive); with HT-29 it was 33.2 µM (inactive); in the assay on Hs-578T it was > 100 µM (inactive). In addition, the GI50 with KM12 is 82.2 µM (inactive); in the assay with Malme-3M it was 27.3 µM (inactive); in the assay on NCI-H460, 97.7 µM (inactive); in the assay on OVCAR-3, 29.9 µM (inactive); with SF-539 it was 69.8 µM (inactive); in the assay on SK-MEL-2 it was > 100 µM (inactive). Besides, the GI50 in the assay on SNB-19 and in the assay on UACC-62 was > 100 µM (inactive) each time.

Take `Cc1nn(C(=O)c2ccc(Cl)cc2)c2c1C(c1ccc([N+](=O)[O-])cc1)SC(=N)N2` (stereo unspecified): the GI50 in the assay on A549, in the assay with ACHN, in the assay with CCRF-CEM, with DU-145, in the assay on HT-29 and in the assay with Hs-578T was > 10 µM (inactive) each time. In addition, the GI50 in the assay on KM12, with Malme-3M, with NCI-H460, in the assay on NCI-H522, with OVCAR-3 and with OVCAR-5 was > 10 µM (inactive) each time. Also, the GI50 with SF-295, in the assay with SF-539, with SK-MEL-2, in the assay on SNB-19, in the assay with SNB-75 and in the assay on UACC-62 was > 10 µM (inactive) throughout.

Consider `CC1(C)C2CCC(CN)(C2)C1N` (stereo unspecified), for which the GI50 in the assay with A498, in the assay on A549, in the assay with ACHN, with CCRF-CEM, in the assay with DU-145 and with HT-29 was > 100 µM (inactive) throughout. Moreover, the GI50 was > 100 µM (inactive) in the assay with Hs-578T; > 100 µM (inactive) with KM12; > 100 µM (inactive) with Malme-3M; 4.49 µM (inactive) in the assay with NCI-H460; > 100 µM (inactive) with OVCAR-3; > 100 µM (inactive) with OVCAR-5. The GI50 with SF-295 was > 100 µM (inactive); in the assay with SF-539, > 100 µM (inactive); in the assay with SK-MEL-2, > 100 µM (inactive); with SNB-19 it was > 100 µM (inactive); in the assay on SNB-75 it was > 54.5 µM (inactive); with UACC-62, > 100 µM (inactive).

As to `CC(C)(C)OC(=O)N/C(C=O)=C\C1CCCCC1`, the GI50 in the assay with A549 is > 100 µM (inactive); in the assay on ACHN, 29.3 µM (inactive); in the assay with CCRF-CEM, 29.6 µM (inactive); with DU-145, 29 µM (inactive); in the assay with HT-29, 27.2 µM (inactive); in the assay with Hs-578T it was 27.3 µM (inactive). The GI50 in the assay on KM12 was 24.4 µM (inactive); in the assay on Malme-3M, 25.8 µM (inactive); in the assay with NCI-H460 it was 20.2 µM (inactive); with NCI-H522, 45.7 µM (inactive); in the assay on OVCAR-3 it was 24.1 µM (inactive); in the assay on OVCAR-5, 19.8 µM (inactive). Moreover, the GI50 with SF-295 was 29.8 µM (inactive); with SF-539, 28.4 µM (inactive); in the assay with SK-MEL-2, 24.8 µM (inactive); in the assay with SNB-19, 25.1 µM (inactive); with SNB-75, 29.7 µM (inactive); with UACC-62, 15.6 µM (inactive).

For `N#CCCC(CC#N)N1CCN(CCO)CC1` (stereo unspecified), the GI50 in the assay on A498, in the assay on A549, in the assay with ACHN, in the assay on CCRF-CEM, in the assay on DU-145 and in the assay on HT-29 was > 100 µM (inactive) in each case. For the same compound, the GI50 in the assay on Hs-578T is 61.4 µM (inactive); in the assay on KM12 it was > 100 µM (inactive); with Malme-3M, > 100 µM (inactive); with NCI-H460 it was > 100 µM (inactive); with OVCAR-5 it was > 100 µM (inactive); in the assay on SF-295 it was > 100 µM (inactive). The GI50 with SF-539, in the assay on SNB-19, in the assay on SNB-75 and in the assay on UACC-62 was > 100 µM (inactive) throughout.

As for `COc1cc2c(cc1OC)-c1[nH]c3ccc(C#N)cc3c1CC(=O)N2`, the GI50 with A498 is 7.74 µM (inactive); in the assay on A549, 5.26 µM (inactive); in the assay with ACHN, 2.32 µM (inactive); with CCRF-CEM it was 1.56 µM (inactive); in the assay with DU-145, 3.33 µM (inactive); in the assay with HT-29, 3.88 µM (inactive). Further, the GI50 with Hs-578T is 0.861 µM (active); in the assay with KM12, 1.71 µM (inactive); in the assay on Malme-3M it was > 28.5 µM (inactive); in the assay on NCI-H460, 5.31 µM (inactive); with OVCAR-3, 1.42 µM (inactive); in the assay on OVCAR-5, 3.69 µM (inactive). Besides, the GI50 is 6.14 µM (inactive) in the assay with SF-295; 0.521 µM (active) in the assay with SF-539; > 100 µM (inactive) in the assay on SNB-19; 0.44 µM (active) with SNB-75; > 84.9 µM (inactive) in the assay on UACC-62.
